From paper PMC3251254, “Mini-PEG spacering of VAP-1-targeting ^68Ga-DOTAVAP-P1 peptide improves PET imaging of inflammation” (EJNMMI Research, 2011)
Read-outs that look alike come from different tables or passages of the source. Residues, ends and D or L forms follow the SMILES beside them. *: point of attachment. DOTA = O=C(O)CN1CCN(CC(=O)O)CCN(CC(=O)*)CCN(CC(=O)O)CC1; AEEA = NCCOCCOCC(=O)O

Columns and labels:
[1] = in vivo, iv; for AUC / CL / blood-plasma ratio / metabolic half-life / plasma free fraction (fp): rat
Protocol: Blood samples (0.2 ml of each) were drawn at 5, 10, 15, 30, 45, 60 and 120 min after injection of ^68Ga-DOTA-peptides into heparinised tubes (Microvette 100; Sarstedt, Nümbrecht, Germany). Radioactivity of whole blood was measured with the gamma counter (Wizard, EG&G Wallac). Plasma was separated by centrifugation (2,200 × g for 5 min at 4°C), and plasma radioactivity was measured. The ratio of radioactivity in blood versus plasma was calculated. To determine plasma protein binding, proteins were precipitated with 10% sulphosalicylic acid, and the radioactivity in protein precipitate and supernatant was measured. The plasma supernatant was further analysed by radio-HPLC in order to evaluate the in vivo stability of the ^68Ga-labelled peptides.
In vivo stability data were used in order to generate metabolite-corrected plasma TACs for ^68Ga-DOTAVAP-P1 and ^68Ga-DOTAVAP-PEG-P1, which were further used for the calculation of pharmacokinetic parameters. The area under curve (AUC) of the plasma TAC from 0 to infinity was calculated using a non-compartmental analysis employing the trapezoidal rule. The clearance (CL) of the ^68Ga-labelled peptides after a single intravenous bolus dose was calculated by dividing the injected dose by the AUC. The plot of the natural logarithm of parent tracer concentration against time after bolus injection became linear in the end phase, as the tracer was eliminated according to the laws of first-order reaction kinetics. The elimination rate constant (kel) was calculated as the negative slope of the linear part of the plot. The plasma elimination half-life (t1/2) was calculated as t1/2 = ln(2)/kel. The metabolic half-lives of the ^68Ga-DOTA-peptides were calculated according to the results of radio-HPLC, i.e. the time point when 50% of the total radioactivity is still bound to the intact peptide.

[2] = assay type: in vitro ADME; settings: plasma
Protocol: The in vitro stability of the ^68Ga-labelled peptides was evaluated in human and rat plasma. Several samples were taken during the 4-h incubation period at 37°C. Proteins from plasma samples were precipitated with 10% sulphosalicylic acid (1:1 v/v), centrifuged at 3,900 × g for 3 min at 4°C, and filtered through 0.45-μm Minispike filter (Waters Corporation). The filtrate was analysed by radio-HPLC.

| proportion of unchanged peptide in rat plasma at 60 min after injection [1] | proportion of unchanged peptide in rat plasma at 120 min after injection [1] | AUC [1] | CL [1] | blood-plasma ratio [1] | metabolic half-life [1] | plasma free fraction (fp) [1] | remaining at 4 h ([2]; human) | remaining at 4 h ([2]; rat) | SMILES |
| --- | --- | --- | --- | --- | --- | --- | --- | --- | --- |
| 19 ± 4% | 4 ± 1% | 950 ± 170 min*kBq/ml | 0.017 ± 0.001 mL/min | 1.3 ± 0.1 | 0.4 h | 0.84 ± 0.04 | 88 ± 3% | 82 ± 11% | NCCCC[C@H](NC(=O)CNC(=O)CNC(=O)CNC(=O)CNC(=O)CN1CCN(CC(=O)O)CCN(CC(=O)O)CCN(CC(=O)O)CC1)C(=O)NCC(=O)NCC(=O)NCC(=O)NCC(=O)O [^68Ga-DOTAVAP-P1, metal not drawn] ({DOTA}-GGGGKGGGG-OH) |
| 76 ± 18% | 49 ± 6% | 2,400 ± 68 min*kBq/ml | 0.008 ± 0.002 mL/min | 1.3 ± 0.1 | 2.08 h | 0.86 ± 0.02 | 89 ± 8% | 90 ± 6% | NCCCC[C@H](NC(=O)CNC(=O)CNC(=O)CNC(=O)CNC(=O)COCCOCCNC(=O)CN1CCN(CC(=O)O)CCN(CC(=O)O)CCN(CC(=O)O)CC1)C(=O)NCC(=O)NCC(=O)NCC(=O)NCC(=O)O [^68Ga-DOTAVAP-PEG-P1, metal not drawn] ({DOTA-AEEA}-GGGGKGGGG-OH) |
